Laboratory results: patent US11345708B2, “Substituted imidazo[1,2-a]imidazoles as modulators of metabotropic glutamate receptor 4 activity” (Hoffmann-La Roche Inc., priority 2017, dated 2022)

Biological target: T1, human mGlu4 receptor (Homo sapiens, UniProt Q14833)
T1 construct: expressed in transfected cells; host or cells: HEK-293 (monoclonal, stably transfected)
Experiment: Ca2+ mobilization in vitro assay on recombinant human mGlu4 expressed in HEK293 cells
Type: cell-based
Conditions: HEK-293 cells stably expressing human mGlu4; L-AP4 added at EC20; Fluo-4 fluorescence; read-out: EC50 (uM) mGlu4 PAM
Method: Determination of EC50 Values Using a Ca2+ Mobilization In Vitro Assay on Recombinant Human mGlu4 Expressed in HEK293 Cells:
A monoclonal HEK-293 cell line stably transfected with a cDNA encoding for the human mGlu4 receptor was generated; for the work with mGlu4 Positive Allosteric Modulators (PAMs), a cell line with low receptor expression levels and low constitutive receptor activity was selected to allow the differentiation of agonistic versus PAM activity. Cells were cultured according to standard protocols (Freshney, 2000) in Dulbecco's Modified Eagle Medium with high glucose supplemented with 1 mM glutamine, 10% (vol/vol) heat-inactivated bovine calf serum, Penicillin/Streptomycin, 50 μg/ml hygromycin and 15 μg/ml blasticidin (all cell culture reagents and antibiotics from Invitrogen, Basel, Switzerland).
About 24 hrs before an experiment, 5×10^4 cells/well were seeded in poly-D-lysine coated, black/clear-bottomed 96-well plates. The cells were loaded with 2.5 μM Fluo-4 AM in loading buffer (1×HBSS, 20 mM HEPES) for 1 hr at 37° C. and washed five times with loading buffer. The cells were transferred into a Functional Drug Screening System 7000 (Hamamatsu, Paris, France), and 11 half logarithmic serial dilutions of test compound at 37° C. were added and the cells were incubated for 10-30 min. with on-line recording of fluorescence. Following this pre-incubation step, the agonist (2S)-2-amino-4-phosphonobutanoic acid (L-AP4) was added to the cells at a concentration corresponding to EC20 with on-line recording of fluorescence; in order to account for day-to-day variations in the responsiveness of cells, the EC20 of L-AP4 was determined immediately ahead of each experiment by recording of a full dose-response curve of L-AP4.
Responses were measured as peak increase in fluorescence minus basal (i.e. fluorescence without addition of L-AP4), normalized to the maximal stimulatory effect obtained with saturating concentrations of L-AP4. Graphs were plotted with the % maximal stimulatory using XLfit, a curve fitting program that iteratively plots the data using Levenburg Marquardt algorithm. The single site competition analysis equation used was y=A+((B−A)/(1+((x/C)D))), where y is the % maximal stimulatory effect, A is the minimum y, B is the maximum y, C is the EC50, x is the log 10 of the concentration of the competing compound and D is the slope of the curve (the Hill Coefficient). From these curves the EC50 (drug concentration at which 50% of the maximal receptor activation was achieved), the Hill coefficient as well as the maximal response in % of the maximal stimulatory effect obtained with saturating concentrations of L-AP4 were calculated (see Fig. 1).
A depression of the signal observed after addition of the EC20 concentration of L-AP4 was indicative of an inhibitory activity of the test compound.

T1 sequence (Q14833 33-912): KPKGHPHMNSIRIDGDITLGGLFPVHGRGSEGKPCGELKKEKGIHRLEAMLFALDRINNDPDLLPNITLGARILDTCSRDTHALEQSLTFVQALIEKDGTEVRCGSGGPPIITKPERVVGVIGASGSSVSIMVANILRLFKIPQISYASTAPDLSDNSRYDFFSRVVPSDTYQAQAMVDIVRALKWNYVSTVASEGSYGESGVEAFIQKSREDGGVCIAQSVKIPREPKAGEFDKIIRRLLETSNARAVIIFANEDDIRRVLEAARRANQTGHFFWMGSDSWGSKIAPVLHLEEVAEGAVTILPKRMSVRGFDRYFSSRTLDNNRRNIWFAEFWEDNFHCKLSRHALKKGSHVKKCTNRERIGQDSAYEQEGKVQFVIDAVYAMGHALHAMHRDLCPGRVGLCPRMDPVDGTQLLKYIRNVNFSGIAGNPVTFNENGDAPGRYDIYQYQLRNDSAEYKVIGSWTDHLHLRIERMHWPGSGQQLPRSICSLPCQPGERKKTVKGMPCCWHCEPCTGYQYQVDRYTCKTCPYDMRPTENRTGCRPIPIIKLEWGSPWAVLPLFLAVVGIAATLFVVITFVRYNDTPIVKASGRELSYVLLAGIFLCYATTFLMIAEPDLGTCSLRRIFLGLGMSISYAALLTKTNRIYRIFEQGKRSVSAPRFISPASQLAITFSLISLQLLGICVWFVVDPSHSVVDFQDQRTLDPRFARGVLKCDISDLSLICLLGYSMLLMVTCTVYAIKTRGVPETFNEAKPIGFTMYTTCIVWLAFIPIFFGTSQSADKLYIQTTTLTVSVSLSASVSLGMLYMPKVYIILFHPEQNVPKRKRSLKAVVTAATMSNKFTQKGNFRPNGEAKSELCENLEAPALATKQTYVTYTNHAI

EC50 [µM]	Structure (SMILES)
0.206	CC(F)(F)c1ccc(-c2cc(F)c(N3C(=O)C4(CC4)n4c(-c5cc[nH]n5)cnc43)c(F)c2)cc1 [Example 40, 1′-(4′-(1,1-difluoroethyl)-3,5-difluoro-[1,1′-biphenyl]-4-yl)-5′-(1H-pyrazol-3-yl)spiro[cyclopropane-1,3′-imidazo[1,2-a]imidazol]-2′(1′H)-one]
0.417	O=C1N(c2c(F)cc(N3CCN(CC(F)(F)F)CC3)cc2F)c2ncc(-c3cc[nH]n3)n2C12CC2 [Example 42, 7′-[2,6-difluoro-4-[4-(2,2,2-trifluoroethyl)piperazin-1-yl]phenyl]-3′-(1H-pyrazol-3-yl)spiro[cyclopropane-1,5′-imidazo[1,2-a]imidazole]-6′-one]
0.422	Cn1nccc1-c1cnc2n1C1(CC1)C(=O)N2c1c(F)cc(C#Cc2ccccc2)cc1F [Example 44, 7′-[2,6-difluoro-4-(2-phenylethynyl)phenyl]-3′-(2-methylpyrazol-3-yl)spiro[cyclopropane-1,5′-imidazo[1,2-a]imidazole]-6′-one]
0.377	Cc1cnc2n1C1(CC1)C(=O)N2c1c(F)cc(NC(=O)c2ccccn2)cc1F [Example 48, N-[3,5-difluoro-4-(3′-methyl-6′-oxo-spiro[cyclopropane-1,5′-imidazo[1,2-a]imidazole]-7′-yl)phenyl]pyridine-2-carboxamide]

Continued, compound first:

Structure (SMILES)	EC50 [µM]
O=C1N(c2c(F)cc(C#Cc3ccccc3)cc2F)c2ncc(-c3cn[nH]c3)n2C12CC2 [Example 41, 3-[2,6-Difluoro-4-(2-phenylethynyl)phenyl]-6-(1H-pyrazol-4-yl)-2,3-dihydrospiro[[1,3]diazolo[1,2-a]imidazole-1,1′-cyclopropane]-2-one]	0.238
O=C(Nc1cc(F)c(N2C(=O)C3(CC3)n3c(-c4cc[nH]n4)cnc32)c(F)c1)c1ccccn1 [Example 43, N-[3,5-difluoro-4-[6′-oxo-3′-(1H-pyrazol-3-yl)spiro[cyclopropane-1,5′-imidazo[1,2-a]imidazole]-7′-yl]phenyl]pyridine-2-carboxamide]	0.015
Cn1ccc(-c2cnc3n2C2(CC2)C(=O)N3c2c(F)cc(-c3ccc(OC(F)F)cc3)cc2F)n1 [Example 45, 7′-[4-[4-(difluoromethoxy)phenyl]-2,6-difluoro-phenyl]-3′-(1-methylpyrazol-3-yl)spiro[cyclopropane-1,5′-imidazo[1,2-a]imidazole]-6′-one]	0.621
Cn1nccc1-c1cnc2n1C1(CC1)C(=O)N2c1c(F)cc(C#Cc2cccnc2)cc1F [Example 46, 7′-[2,6-difluoro-4-[2-(3-pyridyl)ethynyl]phenyl]-3′-(2-methylpyrazol-3-yl)spiro[cyclopropane-1,5′-imidazo[1,2-a]imidazole]-6′-one]	0.673
Cc1cnc2n1C1(CC1)C(=O)N2c1c(F)cc(C#Cc2ccccc2)cc1F [Example 47, 3-[2,6-Difluoro-4-(2-phenylethynyl)phenyl]-6-methyl-2,3-dihydrospiro[[1,3]diazolo[1,2-a]imidazole-1,1′-cyclopropane]-2-one]	0.181
Cc1cnc2n1C1(CC1)C(=O)N2c1c(F)cc(C#Cc2cccnc2)cc1F [Example 49, 7′-[2,6-difluoro-4-[2-(3-pyridyl)ethynyl]phenyl]-3′-methyl-spiro[cyclopropane-1,5′-imidazo[1,2-a]imidazole]-6′-one]	0.829
O=C1N(c2c(F)cc(C#Cc3ccccc3)cc2F)c2ncc(C3(O)COC3)n2C12CC2 [Example 50, 7′-[2,6-difluoro-4-(2-phenylethynyl)phenyl]-3′-(3-hydroxyoxetan-3-yl)spiro[cyclopropane-1,5′-imidazo[1,2-a]imidazole]-6′-one]	0.322
O=C(Nc1cc(F)c(N2C(=O)C3(CC3)n3c(C4(O)COC4)cnc32)c(F)c1)c1ccccn1 [Example 51, N-[3,5-difluoro-4-[3′-(3-hydroxyoxetan-3-yl)-6′-oxo-spiro[cyclopropane-1,5′-imidazo[1,2-a]imidazole]-7′-yl]phenyl]pyridine-2-carboxamide]	0.363
